Assay in all cases: NCI-60 cell line screen, 48 h
In assay [1] the test system is 786-0 renal.
The test system of assay [2] is A498 renal.
The test system of assay [3] is A549 NSCLC.
In assay [4] the test system is CAKI-1 renal.
The test system of assay [5] is EKVX NSCLC.
Assay [6] relates to HL-60(TB) leukemia.
Assay [7] concerns HT29 colon.
Assay [8] deals with KM12 colon.
In assay [9] the test system is M14 melanoma.
The test system of assay [10] is MDA-MB-231 breast.
The subject of assay [11] is NCI-H522 lung.
Assay [12] has as its system OVCAR-4 ovarian.
Assay [13] relates to OVCAR-5 ovarian.
Assay [14] relates to RXF 393 renal.
The test system of assay [15] is SF-539 CNS.
For assay [16], the system named is SK-MEL-28 melanoma.
In assay [17] the test system is SR leukemia.
Assay [18] relates to TK-10 renal.
Assay [19] deals with UO-31 renal.

Here are results for 15 compounds from PubChem BioAssay (NCI).

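Five concentrations, 48 hours, 96-well plates. TGI denotes the concentration required for complete inhibition of growth.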 Bounds are passed on as bounds.

Take `N#C/C(C(=S)Nc1ccccc1)=C(/N)N1CCCC1`: the TGI is more than 100 µM in [1]; more than 100 µM in [2]; more than 100 µM in [3]; 92.5 µM in assay [4]; more than 100 µM in assay [5]; more than 100 µM in [6]. Besides, the TGI in assay [7], in [8], in assay [9], in assay [10], in [11] and in assay [12] was more than 100 µM each time. Moreover, the TGI in [13], in assay [14], in assay [15], in assay [16], in assay [17] and in [18] was more than 100 µM each time. In assay [19], the TGI is more than 100 µM.

As for `COc1ccc2oc(=O)c(-c3nc4ccccc4o3)cc2c1`, the TGI in assay [1], in [2], in assay [3], in assay [4], in [5] and in [6] was more than 100 µM throughout. Further, the TGI in assay [7], in [8], in [9], in assay [10], in [11] and in [12] was more than 100 µM in each case. Further, the TGI in [13] was more than 100 µM; in assay [14] it was more than 100 µM; in [15], more than 100 µM; in assay [16], more than 100 µM; in assay [17], 49.7 µM; in assay [18], more than 100 µM. Besides, the TGI in [19] was more than 100 µM.

As to `NC(=NCCN1CCCCCCC1)NO`, the TGI in [1], in assay [2], in [3], in [4], in assay [5] and in assay [6] was more than 100 µM each time. Also, the TGI in assay [7], in [8], in assay [9], in assay [10], in assay [11] and in assay [12] was more than 100 µM throughout. Moreover, the TGI in assay [13], in assay [14], in assay [15], in assay [16], in assay [17] and in [18] was more than 100 µM in each case. The TGI in assay [19] was more than 100 µM.

For `CC1(C)CCCCCCC2CC2CCCCCC(C)(C)C1=O` (stereo not given), the TGI is more than 100 µM in assay [1]; more than 100 µM in [2]; more than 100 µM in [3]; more than 100 µM in [4]; more than 100 µM in assay [5]; 32.7 µM in assay [6]. In addition, the TGI in assay [7], in assay [8], in assay [9], in assay [10], in assay [11] and in assay [12] was more than 100 µM each time. For the same compound, the TGI in assay [13] was more than 100 µM; in assay [14], more than 100 µM; in [15] it was more than 100 µM; in assay [16] it was more than 100 µM; in assay [17], 20.7 µM; in assay [18], more than 100 µM. In [19], the TGI was more than 100 µM.

On to `CCOC(=O)c1[nH]cc(C)c1-c1c[nH]c2ccccc12`, for which the TGI in [1], in assay [2], in [3], in assay [4], in assay [5] and in assay [6] was more than 100 µM each time. Besides, the TGI in [7] was more than 82.6 µM; in [8], more than 100 µM; in assay [9], more than 100 µM; in assay [10], more than 58.9 µM; in [11] it was more than 81.8 µM; in assay [12] it was more than 100 µM. The TGI was more than 100 µM in assay [13]; more than 80 µM in assay [14]; more than 100 µM in assay [15]; more than 100 µM in assay [16]; more than 39.4 µM in assay [17]; more than 80.3 µM in [18]. In assay [19], this compound registered a TGI of 48.1 µM.

`COc1cc(C2S/C(=C/c3ccccc3)C(=O)N2c2cc(Cl)c(Cl)cc2Cl)cc(OC)c1OC` (stereo not given): the TGI in assay [1] is more than 100 µM; in [2], more than 78 µM; in [3], more than 100 µM; in assay [4] it was more than 87.1 µM; in assay [5], more than 88.6 µM; in assay [6], more than 77.2 µM. The TGI is more than 100 µM in [7]; more than 78.3 µM in assay [8]; more than 100 µM in assay [9]; more than 100 µM in assay [10]; more than 66.5 µM in assay [11]; more than 100 µM in assay [12]. Further, the TGI in [13] is more than 100 µM; in [14], more than 100 µM; in assay [15], more than 100 µM; in assay [16], more than 100 µM; in assay [17], more than 69.4 µM; in assay [18] it was more than 100 µM. The TGI in assay [19] is more than 100 µM.

Regarding `O=C1N=NC(=O)N1c1cc(C(F)(F)F)cc(C(F)(F)F)c1`, the TGI in [1] was 17 µM; in assay [2], 25.4 µM; in assay [3], 12 µM; in [4], 10.2 µM; in assay [5] it was 33.2 µM; in assay [6], more than 100 µM. Moreover, the TGI in [7] amounted to 8.1 µM; in assay [8], 18.2 µM; in [9] it was 24.3 µM; in [10], 6.55 µM; in assay [11], 9.13 µM; in assay [12], 27.5 µM. In addition, the TGI in [13] is 30.5 µM; in assay [14], 12.4 µM; in [15], 20.7 µM; in [16], 44.3 µM; in assay [17], more than 53.1 µM; in assay [18], more than 42.8 µM. Also, the TGI in [19] is 7.89 µM.

`Cn1c(=O)cc(N=Nc2ccc(Cl)c(Cl)c2)[nH]c1=O`: the TGI in assay [1] was 31.9 µM; in assay [2] it was more than 100 µM; in assay [3] it was more than 100 µM; in [4] it was 28.5 µM; in assay [5] it was 51.4 µM; in [6] it was 50.7 µM. Besides, the TGI was 38.6 µM in assay [7]; more than 100 µM in [8]; 47.7 µM in [9]; 45.3 µM in assay [10]; 49.4 µM in assay [11]; 61.7 µM in assay [12]. Also, the TGI was more than 100 µM in assay [13]; 63.6 µM in assay [14]; more than 100 µM in assay [15]; 57.5 µM in assay [16]; 54 µM in assay [17]; 47.9 µM in assay [18]. This compound also showed a TGI in assay [19] of more than 100 µM.

Consider `COC(=O)c1cc(C)ccc1C1CN=NC12Cc1cccc(C)c1C2=O` (stereo not given), for which the TGI in assay [1] is more than 100 µM; in assay [2], more than 100 µM; in assay [3] it was more than 100 µM; in [4], more than 100 µM; in assay [5] it was 95.6 µM; in assay [6], 32.8 µM. The TGI in [7] was more than 100 µM; in assay [8] it was 79.7 µM; in [9], 38.9 µM; in assay [10], 75.5 µM; in assay [11], 89.6 µM; in [12], more than 100 µM. Besides, the TGI in assay [13] was 96.4 µM; in assay [14], more than 100 µM; in [15], more than 100 µM; in assay [16] it was more than 100 µM; in assay [17], more than 100 µM; in [18] it was more than 100 µM. In [19], this compound came in with a TGI of more than 100 µM.

On to `Cc1ccc2c(c1)C(C1Cc3cccc(C)c3C1=O)OC2=O` (stereo not given), for which the TGI in [1], in assay [2], in assay [3], in assay [4], in [5] and in assay [6] was more than 100 µM throughout. In addition, the TGI in assay [7], in assay [8], in assay [9], in assay [10], in assay [11] and in [12] was more than 100 µM throughout. The TGI in assay [13], in assay [14], in [15], in [16], in [17] and in [18] was more than 100 µM in each case. For the same compound, the TGI in [19] is more than 100 µM.

Turning to `COc1ccc2nc3cc([N+](=O)[O-])ccc3c(Nc3ccc(S(=O)(=O)N=C(N)N)cc3)c2c1`, the TGI is more than 100 µM in [1]; more than 100 µM in assay [2]; more than 100 µM in [3]; more than 100 µM in assay [4]; more than 100 µM in assay [5]; 31.3 µM in [6]. The TGI in assay [7] was more than 100 µM; in assay [8], 57.5 µM; in assay [9] it was more than 100 µM; in assay [10] it was more than 100 µM; in assay [11], 41.3 µM; in assay [12], more than 100 µM. In addition, the TGI is more than 100 µM in [13]; more than 100 µM in [14]; more than 100 µM in [15]; more than 100 µM in assay [16]; 4.68 µM in [17]; more than 100 µM in assay [18]. In addition, in assay [19], the TGI is more than 100 µM.

As to `CC(C)n1c(=O)[nH]n(-c2ccccc2)c1=O`, the TGI in assay [1], in [2], in assay [3], in [4], in [5] and in assay [6] was more than 100 µM in each case. The TGI in assay [7], in assay [8], in assay [9], in [10], in assay [11] and in assay [12] was more than 100 µM each time. Further, the TGI in assay [13], in assay [14], in assay [15], in assay [16], in assay [17] and in assay [18] was more than 100 µM throughout. The compound also came in with a TGI in assay [19] of more than 100 µM.

`COC(=O)Cc1c(/C=C/C(C)(C)n2cnc(CCN3C(=O)CCC3=O)c2)[nH]c2ccccc12`: the TGI in assay [1], in assay [2], in assay [3], in [4], in [5] and in [6] was more than 100 µM in each case. Moreover, the TGI in [7], in [8], in assay [9], in assay [10], in [11] and in assay [12] was more than 100 µM each time. In addition, the TGI in assay [13], in [14], in [15], in assay [16], in assay [17] and in [18] was more than 100 µM in each case. Also, in assay [19], the TGI is more than 100 µM.

For the compound `CC1=NN(C(=O)CC(=O)Nc2cccc(C)c2)C(=O)C1N=Nc1ccc(S(=O)(=O)c2ccc(N=NC3C(=O)N(C(=O)CC(=O)Nc4cccc(C)c4)N=C3C)cc2)cc1` (stereo not given), the TGI in [1], in assay [2], in assay [3], in [4], in assay [5] and in assay [6] was more than 100 µM in each case. Also, the TGI in assay [7], in assay [8], in [9], in assay [10], in [11] and in assay [12] was more than 100 µM in each case. For the same compound, the TGI in assay [13], in [14], in assay [15], in assay [16], in [17] and in assay [18] was more than 100 µM throughout. This compound also registered a TGI in assay [19] of more than 100 µM.

As to `C=C(C)[C@@H]1CCC2=C[C@H](OC2=O)[C@@]2(C)C[C@@H]2C(=O)/C=C(/C)C(=O)[C@H]1OC(C)=O`, the TGI in assay [1] is 30.3 µM; in [2], 57.8 µM; in [3], more than 71.9 µM; in [4], 42 µM; in assay [5] it was more than 49.8 µM; in assay [6], more than 100 µM. For the same compound, the TGI is more than 48.4 µM in assay [7]; 42 µM in assay [8]; more than 100 µM in [9]; more than 100 µM in [10]; 17.1 µM in [11]; more than 63.6 µM in [12]. Moreover, the TGI in assay [13] was 43.9 µM; in assay [14], more than 48 µM; in [15], more than 33.7 µM; in [16], 52.9 µM; in assay [17], more than 37.8 µM; in assay [18], more than 62.7 µM. The compound also came in with a TGI in assay [19] of more than 100 µM.
